Data on five compounds can be found in article PMC12449371, “The role of unsaturated fatty acids in modulating human butyrylcholinesterase activity: insights from kinetics and molecular docking” (Naunyn-Schmiedeberg's Archives of Pharmacology, 2025).

Entries after “also recorded” stand apart in the source; their conditions may differ. Like-named read-outs stand apart in the source and are kept apart here.

Usually Ki stands for the dissociation constant of the complex between target and ligand, obtained from inhibition or displacement. Broadly, the IC50 is the point on the concentration scale where inhibition reaches its midpoint.

In one test the test system is AChE. The arrangement: method as in Akay et al. [2023]. Particulars: ref Akay et al. [2023]; cited from earlier work.
Test [1] addresses T1, human BChE (Homo sapiens, UniProt P06276).
T1 construct: purification process was performed using 0 Rh (−) human blood serum from the Hacettepe Hospital blood bank; from tissue; host or cells: human blood serum (0 Rh(−), Hacettepe Hospital blood bank)
The experiment in a line: Inhibition kinetics, Ellman method with varying BTCh substrate. Type of test: biochemical. Particulars: for Ki: BTCh as substrate (1.0-0.05 mM), three fatty acid concentrations; for Inhibition type: Lineweaver-Burk analysis, BTCh as substrate. Here is the method:
(§1) The butyrylcholinesterase purification process was performed using 0 Rh (−) human blood serum from the Hacettepe Hospital blood bank, as described in a previous study (Gok et al. [2023]). BChE was subjected to acid dialysis followed by DEAE-Trisacryl M ion-exchange chromatography under pH 5.5 conditions. The pooled active fractions from Trisacryl M chromatography were dialyzed to adjust neutral buffer pH 7.4 and transferred to procainamide-Sepharose 4B chromatography. The BChE enzyme was bound to the procainamide column, which was then washed with 25 mM phosphate buffer at pH 7.4. The BChE was eluted from the column with a linear gradient of 0.2–0.8 M NaCl in 25 mM potassium phosphate buffer pH 7.4, followed by dialysis. […] Silver staining (Blum et al. [1987]) and the Karnovsky-Roots technique (Karnovsky and Roots [1964]) were used to visualize gels that had been labeled for activity and protein, […].
Evaluation of BChE activity was performed according to the Ellman method (George and Abernethy [1983]) with a minor modification in a 96-well microtiter plate assay. The fatty acids oleic acid, linoleic acid, α-LA, and arachidonic acid used in the assay were dissolved in DMSO. The working solutions were then sonicated in a reaction buffer for 30 + 30 s. Based on previous experimental results, three concentrations of oleic acid, linoleic acid, α-LA, and arachidonic acid were chosen: 200–750 µM, 500–2500 µM, 50–250 µM, and 100–300 µM, respectively. This was to clarify the inhibitory mechanisms for the fatty acids. In the presence of these fatty acids, BChE activity was measured at eight progressively lower concentrations (1.0–0.05 mM) of the BTCh substrate. The experimental procedure involved incubation of a solution of the fatty acid with BChE enzyme (0.7 µg), 50 mM MOPS buffer pH 7.4, and 0.25 mM DTNB in the absence of light at 37 °C for 5 min. The reaction was initiated and monitored for 10 min at 412 nm in kinetic mode after addition of the substrate. The identical solution was run with buffer instead of fatty acids as a control and all assays were performed in triplicate. Enzyme activity was expressed in milliunits (mU), where 1 mU corresponds to the hydrolysis of 1 nmol of BTCh per minute at room temperature.
Enzyme kinetics data was analyzed and graphs were plotted using GraphPad Prism 8.42. The kinetic parameters and the enzyme-substrate relationship were fitted to the Michaelis-Menten model using nonlinear regression.
(DTNB colorimetry detects thiols as they appear.)

In test [2] the target is T1, human BChE. The experiment in a line: IC50 determination, modified 96-microtiter plate Ellman assay. The format is biochemical. Particulars: purified human serum BChE, 0.5 mM BTCh, 50 mM MOPS pH 7.4, 37 °C, Table 2 head prints no unit, µM. Here is the method:
as §1
The IC₅₀ was determined using the modified 96-microtiter plate Ellman assay (George and Abernethy [1983]), using a total volume of 200 µL. […] The unsaturated fatty acids used for the test were dissolved in DMSO and then the working solutions were sonicated in a reaction buffer for 30 s, followed by a further 30 s. The fatty acid solutions with different final concentrations of 10–7500 µM were added to the wells. Subsequently, 50 mM MOPS buffer (pH 7.4) and 0.7 µg of purified BChE enzyme were added. The plate was incubated in the absence of light with a plate shaker at 37 °C for 10 min. Measurements were initiated by adding a final concentration of 0.25 mM DTNB (ε412, DTNB = 14.2 mM^−1 cm^−1) and 0.5 mM butyrylthiocholine (BTCh). The mixture of 1% DMSO without the BTCh substrate was used as the reagent blank. The absorbance readings were recorded at a wavelength of 412 nm for a period of 10 min using the Spectramax M2 microplate reader (Molecular Devices, USA). The activity without fatty acids was set as 100% control, while all activities with fatty acids were compared to this control. IC₅₀ values were determined using GraphPad Prism 8.4 software by plotting the percentage of BChE activity against the fatty acid concentration. Each test was performed at least four times and average values were reported as final results.

T1 sequence (P06276 29-602): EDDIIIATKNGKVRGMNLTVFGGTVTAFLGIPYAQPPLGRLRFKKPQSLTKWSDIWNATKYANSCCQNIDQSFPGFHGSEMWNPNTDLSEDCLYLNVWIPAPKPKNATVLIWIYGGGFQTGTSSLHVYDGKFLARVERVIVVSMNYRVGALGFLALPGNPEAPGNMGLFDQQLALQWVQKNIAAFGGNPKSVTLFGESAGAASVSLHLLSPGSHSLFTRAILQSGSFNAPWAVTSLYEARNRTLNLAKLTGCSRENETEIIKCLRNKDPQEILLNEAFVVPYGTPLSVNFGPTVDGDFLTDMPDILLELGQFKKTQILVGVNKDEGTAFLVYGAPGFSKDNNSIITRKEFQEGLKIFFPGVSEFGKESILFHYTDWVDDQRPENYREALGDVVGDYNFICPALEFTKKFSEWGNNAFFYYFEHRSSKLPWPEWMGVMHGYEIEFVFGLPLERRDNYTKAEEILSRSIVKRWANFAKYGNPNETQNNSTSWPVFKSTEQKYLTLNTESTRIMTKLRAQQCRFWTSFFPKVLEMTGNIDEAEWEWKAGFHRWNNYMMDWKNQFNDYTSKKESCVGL

For `CCCCCCCCCCCCCCCCCCCC(=O)O` [eicosanoic acid], the “AChE inhibition in words” value in the test on AChE was “strongly inhibits”.

For the compound `CCCCCCCC/C=C\CCCCCCCC(=O)O` [Oleic acid, oleic acid], the Ki entry at human BChE [1] is “lowest Ki value”; on human BChE [1] (read-out: Ki), 321 µM. The Inhibition type result on human BChE [1] is reported as “noncompetitively”; on human BChE [1] (listed as Oleic acid (18:1)), “Noncompetitive”. Moreover, the IC50 at human BChE [2] (read-out: IC50) amounted to 2370 µM.

On to `CCCCC/C=C\C/C=C\C/C=C\C/C=C\CCCC(=O)O` [Arachidonic acid, arachidonic acid], for which the Ki on human BChE [1] (read-out: Ki) stood at 465 µM. Moreover, the Inhibition type entry on human BChE [1] (listed as AA) is on record as “uncompetitive type inhibition”; on human BChE [1] (listed as Arachidonic acid (20:4)), “Uncompetitive”. In addition, the IC50 entry against human BChE [2] was “strongest inhibitory activity”; on human BChE [2] (read-out: IC50), 611 µM. Moreover, the “inhibitory effect on AChE (IC50), rank in words” value in the test with AChE is reported as “strongest inhibitory effect”.

Turning to `CC/C=C\C/C=C\C/C=C\CCCCCCCC(=O)O` [α-Linolenic acid, alpha-linolenic acid], the Ki at human BChE [1] (read-out: Ki) worked out at 667 µM. For the same compound, the values for the Inhibition type result at human BChE [1] (listed as α-LA) and at human BChE [1] (listed as α-Linolenic acid (18:3)) were “noncompetitively; also recorded: noncompetitive inhibition type” and “Noncompetitive”, respectively. For the same compound, the IC50 on human BChE [2] (read-out: IC50) came to 5810 µM. Also, the “noncompetitive inhibitory constants (Ki) on AChE, rank in words” value at AChE is reported as “lowest Ki”.

`CCCCC/C=C\C/C=C\CCCCCCCC(=O)O` [Linoleic acid, linoleic acid]: the inhibitory constant (Ki) at human BChE [1] (read-out: Ki) was 1400 µM. For the same compound, the Inhibition type entry at human BChE [1] is recorded as “Noncompetitive inhibition”; at human BChE [1] (listed as LA), “noncompetitive inhibition type”; at human BChE [1] (listed as Linoleic acid (18:2)), “Noncompetitive”. In addition, on human BChE [2] (read-out: IC50), the IC50 is 5910 µM.
